Earlier results on two compounds are cited in patent US20230346789A1, “METHODS OF TREATING ENHANCING BRAIN TUMORS USING COMBINATION THERAPY” (MSD International GmbH, priority 2022, published 2023).

Read-outs that look alike come from different tables or passages of the source.

Data set [1] has as its system Recurrent or Progressive Glioma. As to conditions: monotherapy.

`C[C@@H](Nc1nc(N[C@H](C)C(F)(F)F)nc(-c2cccc(Cl)n2)n1)C(F)(F)F` [vorasidenib, 6-(6-chloropyridin-2-yl)-N^2,N^4-bis((R)-1,1,1-trifluoropropan-2-yl)-1,3,5-triazine-2,4-diamine]: the clinical efficacy entry in data set [1] (patients with non-enhancing gliomas) is “clinical activity and prolonged disease control”; in data set [1] (patients with recurrent enhancing gliomas) it was “only limited efficacy”. “pembrolizumab: humanized immunoglobulin G4 (IgG4) monoclonal antibody blocking the programmed death receptor-1 (PD1)”: the preclinical safety profile result is reported as “acceptable”.
